Results taken from patent US8802405B2, “Ethanologenic Clostridium species, Clostridium coskatii” (Coskata, Inc., priority 2010, dated 2014).

Columns and labels:
[1] = system: Clostridium coskatii (PS02)
C. autoethangenum = assay: Growth on various substrates (carbon substrate utilization); type: cell-based, Clostridium autoethanogenum; conditions: C. autoethangenum; 1 g/L carbon source; N2:CO2 (80%:20%); OD600
Method: (§1) Growth was measured spectrophotometrically at 600 nm (Spectronic 20D; Milton Roy). Carbon substrate utilization was based upon growth after consecutive transfers in media containing 1 g/L of each carbon source. For carbon substrates, screening was performed under an atmosphere of N2: CO2 (80%:20%). A positive growth response was recorded for an OD600 exceeding 0.2 AU. For citrate, additional ^13C-labeled isotope experiments were conducted to determine the nature of products by analysis of final 0.2 μm-filtered product samples by carbon NMR using a Bruker UltraShield Avance 400 MHz nuclear magnetic resonance spectrometer.

C. ragsdalei = assay: as above; type: cell-based, Clostridium ragsdalei; conditions: 1 g/L carbon source, N2:CO2 (80%:20%), OD600
Method: as §1

C. ljungdahlii PETC = assay: as above; type: cell-based, Clostridium ljungdahlii PETC; conditions: 1 g/L carbon source, N2:CO2 (80%:20%), OD600
Method: as §1

C. coskatii PS02 [2] = assay: as above; type: cell-based, Clostridium coskatii (PS02); conditions: C. coskatii PS02; 1 g/L carbon source; N2:CO2 (80%:20%); OD600
Method: as §1

[3] = system: Clostridium coskatii (PS02); remark: listed apart in the source
Excerpt: In general, fermentation will be allowed to proceed until a desired level of product such as ethanol is produced in the culture media. Typically, this level of ethanol is in the range of at least 15 grams/liter of culture medium to 50 grams/liter, with a level of at least 30 grams/liter being preferable. […] In addition, continuous culture techniques exist which allow the continual replenishment of fresh culture medium with concurrent removal of used medium, including any liquid products therein (i.e. the chemostat mode).

C. coskatii PS02 [4] = assay: Growth on various substrates (carbon substrate utilization); type: cell-based; conditions: Clostridium coskatii (PS02); absence of yeast extract

| SMILES | Concentration of undissociated acetic acid at which cell growth was significantly inhibited [1] | Growth on substrate (C. autoethangenum) | Growth on substrate (C. ragsdalei) | Growth on substrate (C. ljungdahlii PETC) | Growth on substrate (C. coskatii PS02 [2]) | Ethanol concentration in which the organism remains viable and will grow [3] | Chemolithoautotrophic growth (in words) (C. coskatii PS02 [4]) |
| --- | --- | --- | --- | --- | --- | --- | --- |
| CC(=O)O [acetic acid] | exceeded 50 mM | – | – | – | – | – | – |
| CCO [Ethanol] | – | + (A positive growth response was recorded for an OD600 exceeding 0.2 AU) | + (A positive growth response was recorded for an OD600 exceeding 0.2 AU) | + (A positive growth response was recorded for an OD600 exceeding 0.2 AU) | + (A positive growth response was recorded for an OD600 exceeding 0.2 AU) | at least 60 grams/liter | – |
| [C-]#[O+] [CO] | – | + (A positive growth response was recorded for an OD600 exceeding 0.2 AU) | + (A positive growth response was recorded for an OD600 exceeding 0.2 AU) | + (A positive growth response was recorded for an OD600 exceeding 0.2 AU) | + (A positive growth response was recorded for an OD600 exceeding 0.2 AU) | – | occurred |
